Values quoted from earlier work as cited in US12296127B2, “Intravesical drug delivery devices” (Massachusetts Institute of Technology, priority 2007, dated 2025).

What was measured:
[1] = delivered orally or transdermally
[2] = oral delivery (ELMIRON); high first pass effect

| bioavailability [2] | Molecule | patients taking the drug who experience side effects [1] | patients who stop treatment due to the severity of the side effects [1] |
| --- | --- | --- | --- |
| – | CCN(CC)CC#CCOC(=O)C(O)(c1ccccc1)C1CCCCC1 (stereo not drawn) [oxybutynin] | approximately 61% | 7 to 11% |
| 3% | Pentosan polysulfate sodium [PPS] | – | – |
